Assays:
[1] = system: ERK phosphorylation in AGS cells; test: Inhibition of ERK phosphorylation in AGS cells (HTRF method); type: cell-based; conditions: Homo sapiens, 1 h incubation
Description: In the experiment, the inhibitory effects of the compounds of the present disclosure on the KRAS target were evaluated by assessing the inhibitory effects of the compounds on ERK phosphorylation in cells and based on IC50 values.
AGS cells were cultured in an RPMI1640 (Hyclone, SH30809.01) complete culture medium containing 10% fetal bovine serum. On the first day of the experiment, the AGS cells were seeded into a 96-well plate with a complete culture medium at a density of 40,000 cells/well, with each well containing 190 μL of a cell suspension. The plate was incubated overnight in a 37° C., 5% CO2 cell incubator.
The next day, the test compounds, serially diluted in a complete culture medium, were added at 10 μL/well. The final concentrations of the compounds were 9 concentration points obtained by 5-fold serial dilution from 10 μM. A blank control containing 0.5% DMSO was set. The plate was incubated in a 37° C., 5% CO2 cell incubator for 1 h. After the incubation, the 96-well cell culture plate was taken out, and the culture medium was removed using a pipette. The plate was washed once by adding 200 μL of PBS (Shanghai BasalMedia Technologies Co., Ltd., B320) to each well. The PBS was removed using a pipette, and 50 μL of a lysis buffer (Cisbio, 64KL1FDF) containing a blocking reagent (Cisbio, 64KB1AAC) was added to each well. The plate was shaken on a shaker at room temperature for 40 min for lysis. After lysis, the lysate was pipetted for good uniformity. […]
On the third day, the fluorescence values at an excitation wavelength of 337 nm and emission wavelengths of 665 nm and 620 nm were obtained using a multi-mode microplate reader (PerkinElmer, EnVision).
The ratio of the fluorescence signal at 665 nm to the fluorescence signal at 620 nm was calculated for phosphorylated ERK1/2 and total ERK1/2 for the compounds at various concentrations, and IC50 values for the inhibitory activity of the compounds were calculated using Graphpad Prism software based on the concentrations of the compounds and the phosphorylated ERK1/2 ratios corrected using the total ERK1/2 ratios.

AGS cells = test: Inhibition of 3D proliferation of AGS cells (CellTiter-Glo 3D); type: cell-based; conditions: Homo sapiens, 120 h, 5 days
Description: (§1) The inhibitory effects of the compounds of the present disclosure on the KRAS target were evaluated by assessing the inhibitory effects of the compounds of the present disclosure on the 3D proliferation of GP2d and AGS cells.
(§2) AGS cells were cultured in a complete culture medium, namely an RPM11640 medium (Hyclone, SH30809.01) containing 10% fetal bovine serum (Corning, 35-076-CV). On the first day of the experiment, the AGS cells were seeded into a 96-well low-adsorption plate (Corning, CLS7007-24EA) with a complete culture medium at a density of 1000 cells/well, with each well containing 90 μL of a cell suspension. The plate was centrifuged at 2000 rpm for 5 min at room temperature and then incubated overnight in a 37° C., 5% CO2 cell incubator.
(§3) The next day, the test compounds, serially diluted in a complete culture medium, were added at 10 μL/well. The final concentrations of the compounds for GP2d cells were 9 concentration points obtained by 5-fold serial dilution from 1 μM, and the final concentrations of the compounds for AGS cells were 9 concentration points obtained by 5-fold serial dilution from […]. A blank control containing 0.5% DMSO was set for both types of cells. The plates were incubated in a 37° C., 5% CO2 cell incubator for 5 days. On the seventh day, the 96-well cell culture plates were taken out, and 50 μL of the CellTiter-Glo® 3D Cell Viability Assay reagent (Promega, G^9682) was added to each well. The plates were shaken at room temperature in the dark for 25 min. The contents in the wells were pipetted for good uniformity, and 100 μL of the mixture was transferred from each well to a white impermeable 96-well plate (PerkinElmer, 6005290). The luminescence signal values were obtained using a multi-mode microplate reader (PerkinElmer, EnVision2105).

AsPC-1 cells = test: Inhibition of 3D proliferation of AsPC-1 cells (CellTiter-Glo 3D); type: cell-based; conditions: Homo sapiens, ASPC1, 120 h, 5 days
Description: On the first day of the experiment, well-grown AsPC-1 cells with 70%-80% confluency were digested and resuspended in an RPMI 1640 culture medium (Hyclone, SH30809.01) containing 10% FBS, and the cell density was adjusted to the desired level. The cell suspension was added to a U-shaped low-adsorption 96-well plate (Corning, CLS7007-24EA) at 90 μL/well, with a cell density of 1500 cells/well. The cell plate was centrifuged at 2500 rpm for 5 min and then incubated overnight in a 37° C., 5% CO2 incubator. The next day, 20 mM test compounds dissolved in DMSO were diluted to an initial concentration of 2 mM and then serially diluted 5-fold, and a total of 9 concentration points were obtained. Control wells were set using DMSO. The serially diluted compounds were then further diluted 20-fold with a culture medium. The test compounds, diluted with the culture medium, were added to the cell plate at 10 μL/well, with the final concentrations of the compounds being 9 concentration points obtained by 5-fold serial dilution from an initial concentration of 10 μM. Cell wells containing 0.5% DMSO were set as vehicle control wells, and wells containing only the culture medium and 0.5% DMSO were set as blank control wells. A duplicate well was set for each concentration of the compounds and the control wells, with the final concentration of DMSO in each well being 0.5%. The cell plate was centrifuged at 2500 rpm for 3 min and then incubated in a 37° C., 5% CO2 incubator for 5 days. On the seventh day, the 96-well cell culture plate was taken out, and 50 μL of the CellTiter-Glo® Luminescent 3D Cell Viability Assay reagent (Promega, G^9683) was added to each well. The plates were shaken at room temperature in the dark for 25 min. The contents in the wells were pipetted up and down for good uniformity, and then 100 μL of the mixture was transferred from each well to a white impermeable OptiPlate™-96-well plate (PerkinElmer, 6005290). The luminescence signal values were obtained using a multi-mode microplate reader (PerkinElmer, EnVision2105).
The inhibition rate was calculated using the formula: inhibition rate=(luminescence valuevehicle control well−luminescence valuetest compound)/(luminescence valuevehicle control well−luminescence valueblank control well)×100%. Curves were plotted using GraphPad Prism software based on the various concentrations of the compounds and the corresponding inhibition rates, and IC50 values for the compounds were calculated.

GP2d cells = test: Inhibition of 3D proliferation of GP2d cells (CellTiter-Glo 3D); type: cell-based; conditions: 120 h, 5 days
Description: as §1
as §2, with “GP2d” for “AGS”, “a DMEM/high glucose culture” for “an RPM11640”, “SH30243.01)” for “SH30809.01)”
as §3

[2] = Pharmacokinetic evaluation in balb/c nude mice after intragastric administration; type: in vivo; conditions: female, mouse, po, i.g., 40.0 mg/kg, plasma; for Vd/F: read-out: Apparent distribution volume Vz/F; for AUC(0-t): read-out: Area under curve AUC0-t; for CL/F: read-out: Clearance rate CL/F; for half-life: read-out: Half-life T½ (converted); for Cmax: read-out: Plasma concentration Cmax
Description: Balb/c nude mice were used as test animals. After intragastric (i.g.) administration of example compounds to balb/c nude mice, the plasma concentrations at different time points were determined by the LC/MS/MS method. The pharmacokinetic behavior of the compounds of the present disclosure in balb/c nude mice was studied, and their pharmacokinetic profiles were evaluated.
Eighteen female balb/c nude mice, provided by Vital River Laboratory Animal Technology Co., Ltd. with production license SCXK (Zhejiang) 2019-0001, were evenly divided into 2 groups.
A certain amount of a test compound was weighed out, and 5% DMF+45% PG+50% (10% HS15-pH 7.4 buffer)+400 mpk SNAC was added to prepare a 4 mg/mL colorless clear solution.
The dose administered was 40.0 mg/kg, and the volume was 10 mL/kg.
0.1-mL blood samples were collected from the orbit before administration and 0.25 h, 0.5 h, 1.0 h, 2.0 h, 4.0 h, 6.0 h, 8.0 h, 11.0 h, and 24.0 h after administration. The blood samples were placed into EDTA-K2 anticoagulation test tubes and centrifuged at 10,000 rpm for 1 min (4° C.), and plasma was separated within 1 h and stored at −20° C. before analysis. The procedure starting from the blood collection to the centrifugation was performed under ice-bath conditions.
After administration of different concentrations of the test compounds, the plasma concentration of the test compounds in balb/c nude mice was determined: A 25-μL sample of the balb/c nude mouse plasma of each time point after administration was taken, and 200 μL of acetonitrile containing an internal standard (for compound 37, the internal standard was 100 ng/mL verapamil; for compound 39, the internal standard was 100 ng/mL diclofenac) was added. The mixture was vortexed for 5 min and centrifuged at 3700 rpm for 20 min, and the supernatant was mixed with water (1:1). 0.5-2 μL of the supernatant was taken and analyzed by LC/MS/MS. 4. Pharmacokinetic parameters

**Q.** For `CCc1c(F)ccc2cc(O)cc(-c3nc4c5c(nc(OCC6(CN7C[C@@H]8C[C@H]7CO8)CC6)nc5c3F)N3C[C@H]5CC[C@H](N5)[C@H]3CO4)c12` [Example 2, 4-((5aS,6S,9R)-12-((1-(((15,4S)-2-Oxa-5-azabicyclo[2.2.1]heptan-5-yl)methyl)cyclopropyl)methoxy)-1-fluoro-5a,6,7,8,9,10-hexahydro-5H-4-oxa-3,10a,11,13,14-pentaaza-6,9-methanonaphtho[1,8-ab]heptalen-2-yl)-5-ethyl-6-fluoronaphthalen-2-ol], which IC50 [1] is on record?
**A.** 1.5 nM

**Q.** For `C[C@@H]1Oc2nc(-c3ccc(F)c4sc(N)c(C#N)c34)c(F)c3nc(OCC4(CN5CCC(=CF)CC5)CC4)nc(c23)N2C[C@H]3CC[C@H](N3)[C@@H]12` [Example 37, 2-Amino-7-fluoro-4-((5S,5aS,6S,9R)-1-fluoro-12-((1-((4-(fluoromethylene)piperidin-1-yl)methyl)cyclopropyl)methoxy)-5-methyl-5a,6,7,8,9,10-hexahydro-5H-4-oxa-3,10a,11,13,14-pentaaza-6,9-methanonaphtho[1,8-ab]heptalen-2-yl)benzo[b]thiophene-3-carbonitrile], which IC50 (AGS cells) is on record?
**A.** 4.7 nM

**Q.** And the IC50 (AsPC-1 cells)?
**A.** 2.4 nM

**Q.** And the IC50 (GP2d cells)?
**A.** 0.4 nM

**Q.** What about the Vd/F [2] of the same molecule?
**A.** 78 L/kg

**Q.** And the AUC(0-t) [2]?
**A.** 5260 ng·h/mL

**Q.** And the CL/F [2]?
**A.** 113 mL/min/kg

**Q.** What about the half-life [2] of the same molecule?
**A.** 7.95 h

**Q.** And the Cmax [2]?
**A.** 699 ng/mL

**Q.** What does the source list for `C[C@@H]1Oc2nc(-c3cc(N)cc(Cl)c3C(F)(F)F)c(F)c3nc(OCC4(CN5CCC(=C(F)F)CC5)CC4)nc(c23)N2C[C@H]3CC[C@H](N3)[C@@H]12` [Example 39, 3-Chloro-5-((5S,5aS,6S,9R)-12-((1-((4-(difluoromethylene)piperidin-1-yl)methyl)cyclopropyl)methoxy)-1-fluoro-5-methyl-5a,6,7,8,9,10-hexahydro-5H-4-oxa-3,10a,11,13,14-pentaaza-6,9-methanonaphtho[1,8-ab]heptalen-2-yl)-4-(trifluoromethyl)aniline]?
**A.** IC50 (AGS cells): 6.7 nM; IC50 (AsPC-1 cells): 2.6 nM; IC50 (GP2d cells): 0.17 nM; Vd/F [2]: 64.2 L/kg; AUC(0-t) [2]: 7210 ng·h/mL; CL/F [2]: 73.7 mL/min/kg; half-life [2]: 10.1 h; Cmax [2]: 578 ng/mL

**Q.** For `CCc1c(F)ccc2cc(O)cc(-c3nc4c5c(nc(OCC6(CN7C[C@H]8C[C@@H]7CO8)CC6)nc5c3F)N3C[C@H]5CC[C@H](N5)[C@H]3CO4)c12` [Example 3, 4-((5aS,6S,9R)-12-((1-(((1R,4R)-2-Oxa-5-azabicyclo[2.2.1]heptan-5-yl)methyl)cyclopropyl)methoxy)-1-fluoro-5a,6,7,8,9,10-hexahydro-5H-4-oxa-3,10a,11,13,14-pentaaza-6,9-methanonaphtho[1,8-ab]heptalen-2-yl)-5-ethyl-6-fluoronaphthalen-2-ol], which IC50 [1] is on record?
**A.** 1.2 nM

**Q.** For `CCc1c(F)ccc2cc(O)cc(-c3nc4c5c(nc(OCC6(CN7CCOCC7)CC6)nc5c3F)N3C[C@H]5CC[C@H](N5)[C@H]3CO4)c12` [Example 1, 5-Ethyl-6-fluoro-4-((5aS,6S,9R)-1-fluoro-12-((1-(morpholinomethyl)cyclopropyl)methoxy)-5a,6,7,8,9,10-hexahydro-5H-4-oxa-3,10a,11,13,14-pentaaza-6,9-methanonaphtho[1,8-ab]heptalen-2-yl)naphthalen-2-ol], which IC50 (AGS cells) is on record?
**A.** 16.7 nM

**Q.** And the IC50 (GP2d cells)?
**A.** 5.2 nM

**Q.** And the IC50 [1]?
**A.** 0.96 nM

— patent US20260274861A1, “FUSED RING COMPOUND, PREPARATION METHOD THEREFOR AND MEDICINAL APPLICATION THEREOF” (JIANGSU HENGRUI PHARMACEUTICALS CO., LTD., priority 2022, published 2026)
